# Experimental data as given in patent publication US20260184691A1, “INHIBITORS AND DEGRADERS OF PIP4K PROTEIN” (Larkspur Biosciences, Inc., priority 2022, published 2026).
# Target: T1, endogenous PIP4K2C C-terminally tagged with HiBiT peptide in MOLT-4 cells (Homo sapiens, UniProt Q8TBX8)
# T1 construct: to C-terminally tag endogenous PIP4K2C with HiBiT peptide; host or cells: MOLT-4 (CRISPR-Cas9 knock-in clone)
# T1 sequence (Q8TBX8 1-421): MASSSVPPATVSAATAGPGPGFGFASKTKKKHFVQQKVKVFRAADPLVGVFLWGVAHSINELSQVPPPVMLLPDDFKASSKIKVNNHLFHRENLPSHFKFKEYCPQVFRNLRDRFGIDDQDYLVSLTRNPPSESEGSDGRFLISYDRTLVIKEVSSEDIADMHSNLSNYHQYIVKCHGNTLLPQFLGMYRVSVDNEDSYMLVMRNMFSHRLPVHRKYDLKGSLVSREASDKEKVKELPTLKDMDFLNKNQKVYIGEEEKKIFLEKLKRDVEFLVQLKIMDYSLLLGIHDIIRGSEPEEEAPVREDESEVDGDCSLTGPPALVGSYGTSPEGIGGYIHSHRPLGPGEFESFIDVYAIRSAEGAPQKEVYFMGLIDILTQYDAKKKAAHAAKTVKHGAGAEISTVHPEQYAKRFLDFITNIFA
# Assay: HiBiT PIP4K2C degradation assay in MOLT-4 cells
# Format: cell-based
# Conditions: 24 hours, 10-point dose response, top concentration 10 micromolar, read-out: HiBIT-degradation MOLT4 PIP4k2C 24 hours DC50
# Experimental: Following clonal selection, genotype was confirmed by Sanger sequencing. […] Nano-Glo® HiBiT Lytic Assay System was purchased from Promega (Madison, WI, Catalog number N3030). Cell culture flasks and 384-well microplates were purchased from Corning (Glendale, AZ).
# To study PIP4K2C degradation, 384-well plates were plated with a 10-point dose response curve, 3-fold dilution, in duplicate with a top starting concentration of 10 micromolar. Subsequently 22,500 cells were added to each well and incubated at 37C in 5% CO2 for 24 hours. At the end of the incubation time, cells were treated with the Nano-Glo® HiBiT Lytic Detection System following the manufacturer's instructions. Luminescence was measured with a PHERAstar FSX plate reader (BMG Labtech, Cary, NC). The Levenberg-Marquardt algorithm was used to fit a Hill equation to dose-response data to calculate DC50 values (see Table 6).
row,Structure (SMILES),DC50 [nM]
1,"O=C1CCC(N2Cc3cc(OCCCCCCCCCCN4CCC5(CC4)CCN(c4cncc(Nc6ncc(Cl)c(-c7cccc(-c8ccccc8)c7)n6)c4)C5=O)ccc3C2=O)C(=O)N1 (centres unmarked) [Compound 52, 3-(5-((10-(2-(5-((4-([1,1′-biphenyl]-3-yl)-5-chloropyrimidin-2-yl)amino)pyridin-3-yl)-1-oxo-2,8-diazaspiro[4.5]decan-8-yl)decyl)oxy)-1-oxoisoindolin-2-yl)piperidine-2,6-dione]",500 to 1000
2,"O=C(COc1ccc(NC2CCC(=O)NC2=O)cc1)NCCCCCCCCCC(=O)Nc1cncc(Nc2ncc(Cl)c(-c3cccc(-c4ccccc4)c3)n2)c1 (centres unmarked) [Compound 55, N-(5-((4-([1,1′-biphenyl]-3-yl)-5-chloropyrimidin-2-yl)amino)pyridin-3-yl)-10-(2-(4-((2,6-dioxopiperidin-3-yl)amino)phenoxy)acetamido)decanamide]",500 to 1000
3,"O=C1CCC(N2C(=O)c3cccc(OCCCN4CCN(CCCCCCC(=O)Nc5cncc(Nc6ncc(Cl)c(-c7cccc(-c8ccccc8)c7)n6)c5)CC4)c3C2=O)C(=O)N1 (centres unmarked) [Compound 58, N-(5-((4-([1,1′-biphenyl]-3-yl)-5-chloropyrimidin-2-yl)amino)pyridin-3-yl)-7-(4-(3-((2-(2,6-dioxopiperidin-3-yl)-1,3-dioxoisoindolin-4-yl)oxy)propyl)piperazin-1-yl)heptanamide]",< 500
4,"O=C(COc1ccc2c(c1)C(=O)N(C1CCC(=O)NC1=O)C2=O)NCCCCCCCCCC(=O)Nc1cncc(Nc2ncc(Cl)c(-c3cccc(-c4ccccc4)c3)n2)c1 (centres unmarked) [Compound 59, N-(5-((4-([1,1′-biphenyl]-3-yl)-5-chloropyrimidin-2-yl)amino)pyridin-3-yl)-10-(2-((2-(2,6-dioxopiperidin-3-yl)-1,3-dioxoisoindolin-5-yl)oxy)acetamido)decanamide]",500 to 1000
5,"O=C(COc1ccc2c(c1)CN(C1CCC(=O)NC1=O)C2=O)NCCCCCCCCCC(=O)Nc1cncc(Nc2ncc(Cl)c(-c3cccc(-c4ccccc4)c3)n2)c1 (centres unmarked) [Compound 60, N-(5-((4-([1,1′-biphenyl]-3-yl)-5-chloropyrimidin-2-yl)amino)pyridin-3-yl)-10-(2-((2-(2,6-dioxopiperidin-3-yl)-1-oxoisoindolin-5-yl)oxy)acetamido)decanamide]",< 500

# Continued, values first:
row,DC50 [nM],Structure (SMILES)
1,< 500,"O=C1CCC(N2Cc3cc(OCCCCCCCCCN4CCC5(CC4)CCN(c4cncc(Nc6ncc(Cl)c(-c7cccc(-c8ccccc8)c7)n6)c4)C5=O)ccc3C2=O)C(=O)N1 (centres unmarked) [Compound 53, 3-(5-((9-(2-(5-((4-([1,1′-biphenyl]-3-yl)-5-chloropyrimidin-2-yl)amino)pyridin-3-yl)-1-oxo-2,8-diazaspiro[4.5]decan-8-yl)nonyl)oxy)-1-oxoisoindolin-2-yl)piperidine-2,6-dione]"
2,< 500,"O=C1CCC(N2Cc3cc(OCCCCCCCN4CCC5(CC4)CCN(c4cncc(Nc6ncc(Cl)c(-c7cccc(-c8ccccc8)c7)n6)c4)C5=O)ccc3C2=O)C(=O)N1 (centres unmarked) [Compound 54, 3-(5-((7-(2-(5-((4-([1,1′-biphenyl]-3-yl)-5-chloropyrimidin-2-yl)amino)pyridin-3-yl)-1-oxo-2,8-diazaspiro[4.5]decan-8-yl)heptyl)oxy)-1-oxoisoindolin-2-yl)piperidine-2,6-dione]"
3,< 500,"O=C1CCC(N2Cc3cc(OCCCCCCCCN4CCC5(CC4)CCN(c4cncc(Nc6ncc(Cl)c(-c7cccc(-c8ccccc8)c7)n6)c4)C5=O)ccc3C2=O)C(=O)N1 (centres unmarked) [Compound 56, 3-(5-((8-(2-(5-((4-([1,1′-biphenyl]-3-yl)-5-chloropyrimidin-2-yl)amino)pyridin-3-yl)-1-oxo-2,8-diazaspiro[4.5]decan-8-yl)octyl)oxy)-1-oxoisoindolin-2-yl)piperidine-2,6-dione]"
